# Values of other authors as cited in US9388155B1, “Coumarin derivatives for cancer therapy” (Wellesley College, priority 2013, dated 2016).
# System: pancreatic cancer cell line PANC-1
# Settings: PANC-1, nutrient starvation conditions, within 24 hours
smiles,measurement,value
"CC(C)(OC(=O)C=Cc1ccc(O)cc1)C1Cc2c(ccc3ccc(=O)oc23)O1 (stereo not shown) [Angelmarin, 11-O-(p-hydroxy-cinnamoyl) columbianetin]",cytotoxicity,0.01 µg/mL
